In publication doi:10.1101/2023.03.26.531482v1 (biorxiv, 2023):
Like-named read-outs stand apart in the source and are kept apart here.

Legend:
[1] = molecular target: MtDTBS (Mycobacterium tuberculosis dethiobiotin synthetase) (Mycobacterium tuberculosis, UniProt P9WPQ5)
[2] = molecular target: T1, MtDTBS (Mycobacterium tuberculosis dethiobiotin synthetase) (Mycobacterium tuberculosis, UniProt P9WPQ5); assay: biochemical
T1 sequence (P9WPQ5 1-226): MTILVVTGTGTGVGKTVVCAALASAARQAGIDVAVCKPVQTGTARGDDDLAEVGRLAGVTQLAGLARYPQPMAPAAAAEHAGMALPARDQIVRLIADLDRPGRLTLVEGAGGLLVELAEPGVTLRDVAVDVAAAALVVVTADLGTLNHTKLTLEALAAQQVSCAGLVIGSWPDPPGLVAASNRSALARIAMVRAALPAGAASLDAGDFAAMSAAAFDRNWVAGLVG

Row | Compound | Kd [1] [µM] | Kd [2] [µM]
1 | c1ccc2c(c1)CCC1(C2)NCCc2[nH]cnc21 (stereo not shown) [B1] | 1240 ± 180 | –
2 | O=C1CC(c2ccc(F)cc2)Cc2[nH]ncc21 (stereo not shown) [B3] | 620 ± 140 | –
3 | O=C1CC[N+](=Cc2cccc(C(F)(F)F)c2)[N-]1 [B7] | 680 ± 30 | –
4 | O=C1Oc2ccccc2C2(O)C3CCCC3C12 (stereo not shown) [compound 1, 9b-hydroxy-6b,7,8,9,9a,9b-hexahydrocyclopenta[3,4]cyclobuta[1,2-c]chromen-6(6aH)-one] | – | 580 ± 40
